Test results taken from PubChem BioAssay (NCI).
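A five-concentration, 48-hour dose response in 96-well plates underlies each endpoint, interpolated linearly between surrounding concentrations. GI50 = concentration required for 50% inhibition of growth. TGI: total growth inhibition.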 Where a SMILES comes first, the peptide text is derived from it. [ ]: non-standard residue; d: D form. Phe(ol) = N[C@H](CO)Cc1ccccc1; Aib = CC(C)(N)C(=O)O

Key:
Test in all cases: growth of human tumour cells (NCI), 48 h
[1] = system: RXF 393 renal
[2] = system: UACC-62 melanoma
[3] = system: OVCAR-5 ovarian
[4] = system: NCI-H226 lung
[5] = system: NCI-H23 lung
[6] = system: COLO 205 colon
[7] = system: K-562 leukemia
[8] = system: A498 renal
[9] = system: SN12C renal
[10] = system: SNB-75 CNS
[11] = system: RPMI-8226 leukemia
[12] = system: SNB-19 CNS
[13] = system: TK-10 renal
[14] = system: HCC-2998 colon
[15] = system: UO-31 renal
[16] = system: ACHN renal
[17] = system: HT29 colon
[18] = system: SF-295 CNS
[19] = system: HCT-15 colon
[20] = system: SF-539 CNS
[21] = system: MDA-MB-435
[22] = system: SK-MEL-28 melanoma
[23] = system: MALME-3M melanoma
[24] = system: SK-OV-3 ovarian
[25] = system: NCI/ADR-RES ovarian
[26] = system: A549 NSCLC
[27] = system: CCRF-CEM leukemia
[28] = system: U251 CNS
[29] = system: SK-MEL-2 melanoma
[30] = system: BT-549 breast
[31] = system: MOLT-4 leukemia
[32] = system: HS 578T breast
[33] = system: SW-620 colon
[34] = system: HCT-116 colon
[35] = system: OVCAR-8 ovarian
[36] = system: LOX IMVI melanoma
[37] = system: MCF7 breast
[38] = system: T-47D breast
[39] = system: MDA-MB-231 breast
[40] = system: UACC-257 melanoma
[41] = system: HOP-92 NSCLC
[42] = system: KM12 colon
[43] = system: OVCAR-3 ovarian
[44] = system: PC-3 prostate
[45] = system: NCI-H522 lung
[46] = system: NCI-H460 lung
[47] = system: HOP-62 NSCLC
[48] = system: M14 melanoma
[49] = system: SK-MEL-5 melanoma
[50] = system: OVCAR-4 ovarian
[51] = system: SR leukemia
[52] = system: HL-60(TB) leukemia
[53] = system: SF-268 CNS
[54] = system: IGROV1 ovarian
[55] = system: EKVX NSCLC
[56] = system: 786-0 renal

CC(=O)NC(C)(C)C(=O)N1CCC[C@H]1C(=O)NC(C)(C)C(=O)N[C@@H](C)C(=O)NC(C)(C)C(=O)NC(C)(C)C(=O)N[C@@H](CCC(N)=O)C(=O)NC(C)(C)C(=O)N[C@H](C(=O)NC(C)(C)C(=O)NCC(=O)N[C@@H](CC(C)C)C(=O)NC(C)(C)C(=O)N1CCC[C@H]1C(=O)N[C@H](C(=O)NC(C)(C)C(=O)NC(C)(C)C(=O)N[C@@H](CCC(N)=O)C(=O)N[C@@H](CCC(N)=O)C(=O)N[C@H](CO)Cc1ccccc1)C(C)C)C(C)C (Ac-[Aib]P[Aib]A[Aib][Aib]Q[Aib]V[Aib]GL[Aib]PV[Aib][Aib]QQ[Phe(ol)])
GI50 [1]: 777 nM | TGI [1]: 2480 nM | GI50 [2]: 1800 nM | TGI [2]: > 4250 nM | GI50 [3]: 1730 nM | TGI [3]: > 4250 nM | GI50 [4]: 1320 nM | TGI [4]: > 4250 nM | GI50 [5]: 833 nM | TGI [5]: > 4250 nM | GI50 [6]: 831 nM | TGI [6]: 2310 nM | GI50 [7]: 1880 nM | TGI [7]: > 4250 nM | GI50 [8]: 1640 nM | TGI [8]: > 4250 nM | GI50 [9]: 931 nM | TGI [9]: > 4250 nM | GI50 [10]: 788 nM | TGI [10]: > 4250 nM | GI50 [11]: 296 nM | TGI [11]: 2190 nM | GI50 [12]: 1160 nM | TGI [12]: > 4250 nM | GI50 [13]: 3920 nM | TGI [13]: > 4250 nM | GI50 [14]: 1960 nM | TGI [14]: > 4250 nM | GI50 [15]: > 4250 nM | TGI [15]: > 4250 nM | GI50 [16]: > 4250 nM | TGI [16]: > 4250 nM | GI50 [17]: 1260 nM | TGI [17]: > 4250 nM | GI50 [18]: 1320 nM | TGI [18]: > 4250 nM | GI50 [19]: > 4250 nM | TGI [19]: > 4250 nM | GI50 [20]: 1340 nM | TGI [20]: > 4250 nM | GI50 [21]: 1500 nM | TGI [21]: > 4250 nM | GI50 [22]: 1360 nM | TGI [22]: > 4250 nM | GI50 [23]: 1040 nM | TGI [23]: 3430 nM | GI50 [24]: 1280 nM | TGI [24]: > 4250 nM | GI50 [25]: > 4250 nM | TGI [25]: > 4250 nM | GI50 [26]: 1690 nM | TGI [26]: > 4250 nM | GI50 [27]: 2110 nM | TGI [27]: > 4250 nM | GI50 [28]: 1070 nM | TGI [28]: > 4250 nM | GI50 [29]: 1330 nM | TGI [29]: 4020 nM | GI50 [30]: 780 nM | TGI [30]: 2660 nM | GI50 [31]: 2800 nM | TGI [31]: > 4250 nM | GI50 [32]: 1490 nM | TGI [32]: > 4250 nM | GI50 [33]: 2550 nM | TGI [33]: > 4250 nM | GI50 [34]: 1580 nM | TGI [34]: > 4250 nM | GI50 [35]: 2430 nM | TGI [35]: > 4250 nM | GI50 [36]: 1570 nM | TGI [36]: > 4250 nM | GI50 [37]: 206 nM | TGI [37]: > 4250 nM | GI50 [38]: 1120 nM | TGI [38]: 3880 nM | GI50 [39]: 1290 nM | TGI [39]: > 4250 nM | GI50 [40]: 1020 nM | TGI [40]: 3430 nM | GI50 [41]: 1100 nM | TGI [41]: 3580 nM | GI50 [42]: 1880 nM | TGI [42]: > 4250 nM | GI50 [43]: 1290 nM | TGI [43]: > 4250 nM | GI50 [44]: 1340 nM | TGI [44]: > 4250 nM | GI50 [45]: 948 nM | TGI [45]: > 4250 nM | GI50 [46]: 1270 nM | TGI [46]: > 4250 nM | GI50 [47]: 3070 nM | TGI [47]: > 4250 nM | GI50 [48]: 3850 nM | TGI [48]: > 4250 nM | GI50 [49]: 899 nM | TGI [49]: 1960 nM | GI50 [50]: 1050 nM | TGI [50]: > 4250 nM | GI50 [51]: 2200 nM | TGI [51]: > 4250 nM | GI50 [52]: 1740 nM | TGI [52]: > 4250 nM | GI50 [53]: 1730 nM | TGI [53]: > 4250 nM | GI50 [54]: 3060 nM | TGI [54]: > 4250 nM | GI50 [55]: 2510 nM | TGI [55]: > 4250 nM | GI50 [56]: > 4250 nM | TGI [56]: > 4250 nM
